Data from patent US8232401B2 (Japan Tobacco Inc., priority 2002, dated 2012).

target: T1, HIV integrase (Human immunodeficiency virus type 1 group M subtype B, UniProt P12497, F1332H); assay: Determination of enzyme (HIV integrase) inhibitory activity (strand transfer, microtiter plate, absorbance at 450 nm); type: biochemical, HIV (Human Immunodeficiency Virus (type 1)); settings: recombinant HIV integrase (F185H) expressed in E. coli; donor DNA on streptavidin plate, digoxigenin target DNA; 37° C.
T1 construct: HIV integrase full length gene; made in house; host or cells: Escherichia coli BL21(DE3)
Experimental: The following explains evaluation methods of the HIV integrase inhibitory activity of the compound of the present invention.
(i) Construction of Recombinant Integrase Gene Expression System
(ii) Production and Purification of Integrase Protein
Escherichia coli recombinant BL21(DE3) transformed with plasmid pET21a-IN-F185H obtained in (i) was shake cultured at 30° C. in a liquid medium containing ampicillin. When the culture reached the logarithmic growth phase, isopropyl-β-D-thiogalactopyranoside was added to promote expression of integrase gene. The culture was continued for 3 hrs to promote accumulation of the integrase protein. The recombinant E. coli was collected in pellets by centrifugal separation and preserved at −80° C.
The E. coli was suspended in Lysis buffer (20 mM HEPES (pH 7.5), 5 mM DTT, 10 mM CHAPS, 10% glycerol) containing 1M sodium chloride and subjected to repeat pressurization and depressurization for rupture, and centrifugal separation at 4° C., 40,000×g, 60 min to recover a water-soluble fraction (supernatant). This was diluted 10-fold with Lysis buffer free of sodium chloride, mixed with SP-Sepharose (Pharmacia Corporation) and stirred at 4° C. for 60 min to allow adsorption of integrase protein to the resin. The resin was washed with Lysis buffer containing 100 mM sodium chloride and the integrase protein was eluted with Lysis buffer containing 1M sodium chloride.
The eluted integrase protein solution was applied to a Superdex 75 (Pharmacia Corporation) column for gel filtration. The protein was eluted with Lysis buffer containing 1M sodium chloride.
The obtained fractions of the integrate protein were collected and preserved at −80° C.
(iii) Preparation of DNA Solution
The following DNA synthesized by Greiner was dissolved in TE buffer (10 mM Tris-hydrochloric acid (pH 8.0), 1 mM EDTA) and mixed with donor DNA, target DNA, each complementary strand (+ and − strands) to 1 μM. The mixture was heated at 95° C. for 5 min, 80° C. for 10 min, 70° C. for 10 min, 60° C. for 10 min, 50° C. for 10 min and 40° C. for 10 min and preserved at 25° C. to give a double stranded DNA, which was used for the test. Donor DNA (− strand having biotin attached to the 5′ terminal)
(iv) Determination of Enzyme (HIV Integrase) Inhibitory activity
The donor DNA was diluted with TE buffer to 10 nM, of which 50 μl was added to each well of streptavidin-coated microtiter plate (Roche) and allowed to adsorb at 37° C. for 60 min. The DNA was washed with phosphate buffer (Dulbecco PBS, Sanko Junyaku Co., Ltd.) containing 0.1% Tween 20 and phosphate buffer. Then, a reaction mixture (70 μl) having the following composition, a test substance (10 μl) diluted with the reaction mixture and […] integrase protein (10 μl) were added to each well and reacted at 37° C. for 60 min.
Then, 50 nM target DNA (1.0 μl) was added, reacted at 37° C. for 10 min and washed with phosphate buffer containing 0.1% Tween 20 to stop the reaction.
Then, 100 mU/ml peroxidase labeled anti-digoxigenin antibody solution (Roche, 100 μl) was added, and the mixture was reacted at 37° C. for 60 min, followed by washing with phosphate buffer containing 0.1% Tween 20.
A peroxidase color solution (Bio Rad, 100 μl) was added and allowed to react at room temperature for 4 min. The color reaction was stopped by adding 1N sulfuric acid (100 μl). The absorbance at 450 nm was measured.
The HIV integrase inhibitory activity (IC50) of the compound of the present invention was calculated from the inhibition rate according to the following formula. […] Evaluation of Antiviral Activity

| SMILES | IC50 [nM] |
| --- | --- |
| CNS(=O)(=O)Cn1cc(C(=O)O)c(=O)c2cc(Cc3c(F)cccc3Cl)ccc21 [Example 1-76, 6-(2-Chloro-6-fluorobenzyl)-1-methylsulfamoylmethyl-4-oxo-1,4-dihydroquinoline-3-carboxylic acid] | 28 |
| CN(C)S(=O)(=O)Cn1cc(C(=O)O)c(=O)c2cc(Cc3c(F)cccc3Cl)ccc21 [Example 1-77, 6-(2-Chloro-6-fluorobenzyl)-1-dimethylsulfamoylmethyl-4-oxo-1,4-dihydroquinoline-3-carboxylic acid] | 63 |
| O=C(O)c1cn(CCO)c2ccc(Cc3ccccc3)cc2c1=O [Example 1-78] | 590 |
| Cc1cccc(Cc2ccc3c(c2)c(=O)c(C(=O)O)cn3CCO)c1Cl [Example 1-79, 6-(2-Chloro-3-methylbenzyl)-1-(2-hydroxyethyl)-4-oxo-1,4-dihydroquinoline-3-carboxylic acid] | 77 |
| O=C(O)c1cn(CCO)c2ccc(Cc3ccccc3Br)cc2c1=O [Example 1-80, 6-(2-Bromobenzyl)-1-(2-hydroxyethyl)-4-oxo-1,4-dihydroquinoline-3-carboxylic acid] | 350 |
| O=C(O)c1cn(CCO)c2ccc(Cc3ccccc3-c3ccccc3)cc2c1=O [Example 1-86, 6-Biphenyl-2-ylmethyl-1-(2-hydroxyethyl)-4-oxo-1,4-dihydroquinoline-3-carboxylic acid] | 150 |
| O=C(O)c1cn(CCO)c2ccc(Cc3ccccc3Cl)cc2c1=O [Example 1-87, 6-(2-Chlorobenzyl)-1-(2-hydroxyethyl)-4-oxo-1,4-dihydroquinoline-3-carboxylic acid] | 140 |
| O=C(O)c1cn(CCO)c2ccc(Cc3cccc(-c4ccccc4)c3)cc2c1=O [Example 1-88] | 450 |
| CSc1ccc(Cl)c(Cc2ccc3c(c2)c(=O)c(C(=O)O)cn3CCO)c1 [Example 1-92, 6-(2-Chloro-5-methylsulfanylbenzyl)-1-(2-hydroxyethyl)-4-oxo-1,4-dihydroquinoline-3-carboxylic acid] | 280 |
| O=C(O)c1cn(CCO)c2ccc(Cc3ccccc3OC(F)(F)F)cc2c1=O [Example 1-93, 1-(2-Hydroxyethyl)-4-oxo-6-(2-trifluoromethyloxybenzyl)-1,4-dihydroquinoline-3-carboxylic acid] | 370 |
| O=C(O)c1cn(CCO)c2ccc(Cc3cccc(Br)c3)cc2c1=O [Example 1-96] | 230 |
| Cc1ccc(Cl)c(Cc2ccc3c(c2)c(=O)c(C(=O)O)cn3CCO)c1 [Example 1-97, 6-(2-Chloro-5-methylbenzyl)-1-(2-hydroxyethyl)-4-oxo-1,4-dihydroquinoline-3-carboxylic acid] | 130 |
| Nn1cc(C(=O)O)c(=O)c2cc(Cc3cccc(Cl)c3Cl)ccc21 [Example 2-1, 1-Amino-6-(2,3-dichlorobenzyl)-4-oxo-1,4-dihydroquinoline-3-carboxylic acid] | 170 |
| COC(=O)Nn1cc(C(=O)O)c(=O)c2cc(Cc3cccc(Cl)c3Cl)ccc21 [Example 2-2, 6-(2,3-Dichlorobenzyl)-1-methoxycarbonylamino-4-oxo-1,4-dihydroquinoline-3-carboxylic acid] | 180 |
| CC(=O)Nn1cc(C(=O)O)c(=O)c2cc(Cc3cccc(Cl)c3Cl)ccc21 [Example 2-3, 1-Acetylamino-6-(2,3-dichlorobenzyl)-4-oxo-1,4-dihydroquinoline-3-carboxylic acid] | 110 |
| CS(=O)(=O)Nn1cc(C(=O)O)c(=O)c2cc(Cc3cccc(Cl)c3Cl)ccc21 [Example 2-4, 6-(2,3-Dichlorobenzyl)-1-methanesulfonylamino-4-oxo-1,4-dihydroquinoline-3-carboxylic acid] | 18 |

| SMILES | IC50 [nM] |
| --- | --- |
| CN(n1cc(C(=O)O)c(=O)c2cc(Cc3cccc(Cl)c3Cl)ccc21)S(C)(=O)=O [Example 2-5, 6-(2,3-Dichlorobenzyl)-1-(N-methanesulfonyl-N-methylamino)-4-oxo-1,4-dihydroquinoline-3-carboxylic acid] | 300 |
| CN(C)n1cc(C(=O)O)c(=O)c2cc(Cc3cccc(Cl)c3Cl)ccc21 [Example 2-6, 6-(2,3-Dichlorobenzyl)-1-dimethylamino-4-oxo-1,4-dihydroquinoline-3-carboxylic acid] | 92 |
| CNn1cc(C(=O)O)c(=O)c2cc(Cc3cccc(Cl)c3Cl)ccc21 [Example 2-7, 6-(2,3-Dichlorobenzyl)-1-methylamino-4-oxo-1,4-dihydroquinoline-3-carboxylic acid] | 79 |
| CCNn1cc(C(=O)O)c(=O)c2cc(Cc3cccc(Cl)c3Cl)ccc21 [Example 2-8, 6-(2,3-Dichlorobenzyl)-1-ethylamino-4-oxo-1,4-dihydroquinoline-3-carboxylic acid] | 85 |
| COc1c(Cc2cccc(Cl)c2Cl)ccc2c1c(=O)c(C(=O)O)cn2CCO [Example 3-1, 6-(2,3-Dichlorobenzyl)-1-(2-hydroxyethyl)-5-methoxy-4-oxo-1,4-dihydroquinoline-3-carboxylic acid] | 470 |
| Cc1c(Cl)cccc1Cc1ccc2c(c1)c(=O)c(C(=O)O)cn2CCO [Example 3-2, 6-(3-Chloro-2-methylbenzyl)-1-(2-hydroxyethyl)-4-oxo-1,4-dihydroquinoline-3-carboxylic acid] | 200 |
| COc1c(Cl)cccc1Cc1ccc2c(c1)c(=O)c(C(=O)O)cn2CCO [Example 3-3, 6-(3-Chloro-2-methoxybenzyl)-1-(2-hydroxyethyl)-4-oxo-1,4-dihydroquinoline-3-carboxylic acid] | 190 |
| COc1cc2c(cc1Cc1cccc(Cl)c1F)c(=O)c(C(=O)O)cn2CCO [Example 3-4, 6-(3-Chloro-2-fluorobenzyl)-1-(2-hydroxyethyl)-7-methoxy-4-oxo-1,4-dihydroquinoline-3-carboxylic acid] | 11 |
| O=C(O)c1cn(CCO)c2ccc(Cc3cccc(Cl)c3Cl)c(O)c2c1=O [Example 3-5, 6-(2,3-Dichlorobenzyl)-5-hydroxy-1-(2-hydroxyethyl)-4-oxo-1,4-dihydroquinoline-3-carboxylic acid] | 24 |
| O=C(O)c1cn(CCO)c2cc(O)c(Cc3cccc(Cl)c3Cl)cc2c1=O [Example 3-6, 6-(2,3-Dichlorobenzyl)-7-hydroxy-1-(2-hydroxyethyl)-4-oxo-1,4-dihydroquinoline-3-carboxylic acid] | 11 |
| CN(C)c1ccccc1Cc1ccc2c(c1)c(=O)c(C(=O)O)cn2CCO [Example 3-8, 6-(2-Dimethylaminobenzyl)-1-(2-hydroxyethyl)-4-oxo-1,4-dihydroquinoline-3-carboxylic acid] | 340 |
| O=C(O)c1cn(-c2ccccc2)c2ccc(Cc3cccc(Cl)c3Cl)cc2c1=O [Example 3-9, 6-(2,3-Dichlorobenzyl)-4-oxo-1-phenyl-1,4-dihydroquinoline-3-carboxylic acid] | 84 |
| O=C(O)c1cn(C(CO)CO)c2ccc(Cc3cccc(Cl)c3Cl)cc2c1=O [Example 3-10, 6-(2,3-Dichlorobenzyl)-1-[2-hydroxy-1-(hydroxymethyl)ethyl]-4-oxo-1,4-dihydroquinoline-3-carboxylic acid] | 18 |
| O=C(O)c1cn(C2CCC2)c2ccc(Cc3cccc(Cl)c3Cl)cc2c1=O [Example 3-12, 1-Cyclobutyl-6-(2,3-dichlorobenzyl)-4-oxo-1,4-dihydroquinoline-3-carboxylic acid] | 16 |
| O=C(O)c1cn(C2CCCC2)c2ccc(Cc3cccc(Cl)c3Cl)cc2c1=O [Example 3-13, 1-Cyclopentyl-6-(2,3-dichlorobenzyl)-4-oxo-1,4-dihydroquinoline-3-carboxylic acid] | 29 |
